Converted amounts (≈) assume the structure as drawn. Where a SMILES comes first, the peptide text is derived from it. [ ]: non-standard residue; d: D form. The star is where a group is joined. d(aIle) = CC[C@H](C)[C@@H](N)C(=O)O; dDab = NCC[C@@H](N)C(=O)O; Octanoyl = CCCCCCCC(=O)*; Dab = NCC[C@H](N)C(=O)O
Key:
P. aeruginosa PAO1 = assay type: cell-based, Pseudomonas aeruginosa; details: PAO1, 20 h
Description: (§1) All minimum inhibitory concentrations (MICs) were determined according to the Clinical and Standards Laboratory Institute (CLSI) guidelines. In brief, agar plates were inoculated from glycerol stocks and incubated overnight at 35 °C. Peptide DMSO stocks were dispensed into 96-well round-bottom plates using a TECAN D300e dispenser. Colistin sulfate (Sigma-Aldrich) was dissolved in water and serially diluted in a cation-adjusted Mueller Hinton broth (10 μL per well). Final concentrations of the test compounds were 0.06 to 64 μg/mL. Inocula were prepared by direct colony suspension in NaCl at 0.5 MacFarland, which was further diluted 200-fold in cation-adjusted Mueller Hinton broth for a target inoculum of 2 × 10^5 colony forming units (CFUs)/mL. 100 μL portion of the prepared inoculum was added to each well of the prepared plates containing the test compounds. Plates were sealed with parafilm and incubated for 20 h at 35 °C. Images of all plates were recorded, and MIC was assessed visually.

P. aeruginosa 1226072 = assay type: cell-based, Pseudomonas aeruginosa; details: 1226072, 20 h
Description: as §1

P. aeruginosa 1218019 = assay type: cell-based, Pseudomonas aeruginosa; details: 1218019, 20 h
Description: as §1

S. aureus 1126387 = assay type: cell-based, Staphylococcus aureus; details: 1126387, 20 h
Description: as §1

S. aureus UAMS-1625 = assay type: cell-based, Staphylococcus aureus; details: S. aureus UAMS-1625 (BV18); CLSI broth dilution, cation-adjusted Mueller Hinton broth, 20 h, 35 °C, read visually
Description: as §1

S. aureus ATCC 29213 = assay type: cell-based, Staphylococcus aureus; details: ATCC 29213, 20 h
Description: as §1

K. pneumoniae 1228586 = assay type: cell-based, Klebsiella pneumoniae; details: 1228586, 20 h
Description: as §1

K. pneumoniae ATCC 13883 = assay type: cell-based, Klebsiella pneumoniae; details: ATCC 13883, 20 h
Description: as §1

K. pneumoniae 1227947 = assay type: cell-based, Klebsiella pneumoniae; details: 1227947, 20 h
Description: as §1

E. coli 1220120 = assay type: cell-based, Escherichia coli; details: 1220120, 20 h
Description: as §1

E. coli ATCC 25922 = assay type: cell-based, Escherichia coli; details: ATCC 25922, 20 h
Description: as §1

E. coli 1214245 = assay type: cell-based, Escherichia coli; details: 1214245, 20 h
Description: as §1

E. faecalis ATCC 29212 = assay type: cell-based, Enterococcus faecalis; details: ATCC 29212, 20 h
Description: as §1

ATCC 25922 = assay type: cell-based, Enterococcus faecalis; details: ATCC 25922, 20 h
Description: as §1

E. faecium ATCC 51559 = assay type: cell-based, Enterococcus faecium; details: ATCC 51559, 20 h
Description: as §1

E. faecium IHMA 890472 = assay type: cell-based, Enterococcus faecium; details: IHMA 890472, 20 h
Description: as §1

Rabbit red blood cells = experiment: Hemolysis assay; assay type: cell-based; details: rabbit red blood cells in PBS, 37 °C, 1 h, absorbance at 405 nm, normalization to the Triton X-100 control; 0.25 to 128 μg/mL tested
Description: Peptides, dissolved in DMSO, were dispensed into 96-well round-bottom microplates using a TECAN D300e dispenser and subsequently diluted with 100 μL of PBS. PBS or 2% Triton X-100 was used as negative and positive controls, respectively. Rabbit red blood cells (BioConcept) were diluted in PBS to a final concentration of 2%, and 100 μL was added to each well of the prepared 96-well plates. The final concentration of the test compounds was 0.25 to 128 μg/mL. Plates were incubated at 37 °C for 1 h and afterward subjected to centrifugation at 1000g for 5 min. Then, 30 μL of supernatant was transferred to a new round-bottom plate, and absorbance was measured at 405 nm (TECAN Infinite F200). EC50s were calculated after blank subtraction and normalization to the Triton control.

A. baumannii ATCC 17978 = assay type: cell-based, Acinetobacter baumannii; details: ATCC 17978, 20 h
Description: as §1

A. baumannii IHMA 777621 = assay type: cell-based, Acinetobacter baumannii; details: IHMA 777621, 20 h
Description: as §1

A. baumannii HUMC1 = assay type: cell-based, Acinetobacter baumannii; details: HUMC1, 20 h
Description: as §1

[1] = tested on: Gram-positive bacteria (Staphylococcus aureus, Enterococcus faecalis, Enterococcus faecium); experiment: MIC, summary over Gram-positive strains; assay type: cell-based; details: at a concentration of 64 μg/mL; summary of Table 2
Description: as §1

[2] = tested on: Gram-negative ESKAPE pathogens; assay type: cell-based; details: 20 h
Description: as §1

HepG2 cells = experiment: Cytotoxicity determination (CellTiter-Glo); assay type: cell-based; details: HepG2, medium without serum, 24 h, normalization to the untreated control, 1 to 128 μg/mL tested
Description: HepG2 cells were grown in EMEM (Sigma) supplemented with 2 mM glutamine and 10% fetal bovine serum (Fisher) at 37 °C, 5% CO2. 20′000 cells per well were seeded into clear tissue culture-treated 96-well plates and incubated for 24 h. Peptides, dissolved in DMSO, were dispensed into 96 deep well plates (TECAN D300e dispenser) and diluted to a final concentration of 1 to 128 μg/mL using fresh medium without serum. The next day, the old media were removed from the cells, and 200 μL of the prepared compound dilutions was added per well. Plates were incubated for another 24 h before assessing the cell viability using the CellTiter-Glo kit (Promega) according to the manufacturer’s protocol. IC50s were calculated after normalization to the untreated control.

| SMILES | MIC (P. aeruginosa PAO1) [µg/mL] | MIC (P. aeruginosa 1226072) [µg/mL] | MIC (P. aeruginosa 1218019) [µg/mL] | MIC (S. aureus 1126387) [µg/mL] | MIC (S. aureus UAMS-1625) [µg/mL] | MIC (S. aureus ATCC 29213) [µg/mL] | MIC (K. pneumoniae 1228586) [µg/mL] | MIC (K. pneumoniae ATCC 13883) [µg/mL] | MIC (K. pneumoniae 1227947) [µg/mL] | MIC (E. coli 1220120) [µg/mL] | MIC (E. coli ATCC 25922) [µg/mL] | MIC (E. coli 1214245) [µg/mL] | MIC (E. faecalis ATCC 29212) [µg/mL] | MIC (ATCC 25922) [µg/mL] | MIC (E. faecium ATCC 51559) [µg/mL] | MIC (E. faecium IHMA 890472) [µg/mL] | Hemolysis EC50 (Rabbit red blood cells) [µg/mL] | MIC (A. baumannii ATCC 17978) [µg/mL] | MIC (A. baumannii IHMA 777621) [µg/mL] | MIC (A. baumannii HUMC1) [µg/mL] | further results |
| --- | --- | --- | --- | --- | --- | --- | --- | --- | --- | --- | --- | --- | --- | --- | --- | --- | --- | --- | --- | --- | --- |
| CCCCCCCC(=O)N[C@@H](C(=O)N[C@H](CCN)C(=O)NCC(=O)N[C@H](CO)C(=O)N[C@H](Cc1c[nH]c2ccccc12)C(=O)N[C@@H](CO)C(=O)N[C@@H](CCN)C(=O)N[C@H](CCN)C(=O)N[C@@H](C)C(=O)N[C@@H](CCC(=O)O)C(=O)N[C@H](C(=O)N[C@@H](C(=O)N[C@@H](C)C(=O)O)[C@@H](C)CC)C(C)C)C(C)C [Oct-Ala9] (Octanoyl-[dV][dDab]G[dS][dW]S[Dab][dDab]AEV[d(aIle)]A-OH) | 64 (≈ 44.3 µM) | 32 (≈ 22.1 µM) | >64 | >64 | >64 | >64 | 8 (≈ 5.54 µM) | 8 (≈ 5.54 µM) | 16 (≈ 11.1 µM) | 8 (≈ 5.54 µM) | 16 (≈ 11.1 µM) | 16 (≈ 11.1 µM) | >64 | >64 | >64 | >64 | >128 | >64 | >64 | >64 | antibacterial activity against Gram-positive bacteria [1]: no antibacterial activity; MICs, range over Gram-negative pathogens [2]: 8 to 64 µg/mL; IC50 on HepG2 w/o FCS (HepG2 cells): >128 µg/mL |
| CCCCCCCC(=O)N[C@@H](C(=O)N[C@H](CCN)C(=O)NCC(=O)N[C@H](CO)C(=O)N[C@H](Cc1c[nH]c2ccccc12)C(=O)N[C@@H](CO)C(=O)N[C@@H](CCN)C(=O)N[C@H](CCN)C(=O)N[C@@H](CCN)C(=O)N[C@@H](CCC(=O)O)C(=O)N[C@H](C(=O)N[C@@H](C(=O)N[C@@H](C)C(=O)O)[C@@H](C)CC)C(C)C)C(C)C [Oct-Dab9] (Octanoyl-[dV][dDab]G[dS][dW]S[Dab][dDab][Dab]EV[d(aIle)]A-OH) | >64 | 8 (≈ 5.43 µM) | >64 | >64 | >64 | >64 | >64 | >64 | >64 | >64 | >64 | >64 | >64 | >64 | >64 | >64 | >128 | >64 | >64 | >64 | antibacterial activity against Gram-positive bacteria [1]: no antibacterial activity; MICs, range over Gram-negative pathogens [2]: 8 to 64 µg/mL; IC50 on HepG2 w/o FCS (HepG2 cells): >128 µg/mL |
| CCCCCCCC(=O)N[C@@H](C(=O)N[C@H](CCN)C(=O)NCC(=O)N[C@H](CO)C(=O)N[C@H](Cc1c[nH]c2ccccc12)C(=O)N[C@@H](CO)C(=O)N[C@@H](CCN)C(=O)N[C@H](CCN)C(=O)N[C@@H](CCC(=O)O)C(=O)N[C@@H](CCC(=O)O)C(=O)N[C@H](C(=O)N[C@@H](C(=O)N[C@@H](C)C(=O)O)[C@@H](C)CC)C(C)C)C(C)C [Oct-Glu9] (Octanoyl-[dV][dDab]G[dS][dW]S[Dab][dDab]EEV[d(aIle)]A-OH) | >64 | >64 | >64 | >64 | >64 | >64 | >64 | >64 | >64 | 64 (≈ 42.6 µM) | >64 | >64 | >64 | >64 | >64 | >64 | >128 | >64 | >64 | >64 | antibacterial activity against Gram-positive bacteria [1]: no antibacterial activity; MICs, range over Gram-negative pathogens [2]: 8 to 64 µg/mL; IC50 on HepG2 w/o FCS (HepG2 cells): >128 µg/mL |
| CCCCCCCC(=O)N[C@@H](C(=O)N[C@H](CCN)C(=O)NCC(=O)N[C@H](CO)C(=O)N[C@H](Cc1c[nH]c2ccccc12)C(=O)N[C@@H](CO)C(=O)N[C@@H](CCN)C(=O)N[C@H](CCN)C(=O)N[C@H](C(=O)N[C@@H](CCC(=O)O)C(=O)N[C@H](C(=O)N[C@@H](C(=O)N[C@@H](C)C(=O)O)[C@@H](C)CC)C(C)C)C(C)C)C(C)C [Oct-Val9] (Octanoyl-[dV][dDab]G[dS][dW]S[Dab][dDab]VEV[d(aIle)]A-OH) | 64 (≈ 43.5 µM) | 16 (≈ 10.9 µM) | 16 (≈ 10.9 µM) | >64 | >64 | >64 | 8 (≈ 5.43 µM) | 2 (≈ 1.36 µM) | 8 (≈ 5.43 µM) | 4 (≈ 2.72 µM) | 4 (≈ 2.72 µM) | 4 (≈ 2.72 µM) | 64 (≈ 43.5 µM) | >64 | 64 (≈ 43.5 µM) | >64 | >128 | 32 (≈ 21.7 µM) | 32 (≈ 21.7 µM) | 32 (≈ 21.7 µM) | IC50 on HepG2 w/o FCS (HepG2 cells): >128 µg/mL |

Source: paper PMC11106739, “Discovery and Derivatization of Tridecaptin Antibiotics with Altered Host Specificity and Enhanced Bioactivity” (ACS Chemical Biology, 2024)
